Patent US11896593B2, “Sulfamate derivative compounds for use in treating or alleviating a psychiatric disorder” (Bio-Pharm Solutions Co., Ltd., priority 2020, dated 2024)

Experiments:
Type in all cases: in vivo
ICR male mice [1] = experiment: Open field test; conditions: 60 minutes before testing
Method: This test is based on anxiety behaviors of rodents in the central area of an open field. When a mouse stayed in the central area for a longer period of time, it was deemed that there were more anti-stress, anti-depressant and anti-anxiety effects. ICR male mice (30 g to 35 g) were purchased from Orient Bio Korea Co. (Korea) and allowed to acclimatize for 1 week before being tested in a controlled animal facility (temperature 22±2° C., humidity 55±5%). When treatment began, the weight of the animals was 35±5% g. The test compound for oral administration was dissolved in 30% PEG400 and administered at a dose per body weight of 10 mL/kg 60 minutes before testing. The test compound for intraperitoneal administration was dissolved in 20% Tween80 and administered at a dose per body weight of 10 mL/kg 60 minutes before testing. The control group was provided with a corresponding vehicle. The open field was measured and analyzed by OPTO-VARIMEX instrument (Columbus Instruments, USA). The mouse was placed in the center of the open field, and its behavior was measured for 10 minutes. The open field was divided into 16 equal parts, and the middle area was established as the central area. Locomotor activity was measured using a spontaneous momentum (distance moved in cm), and measurement of anxiety behavior was obtained using the time spent in the central area as an index. In the open field experiment, when the time during which the mouse stayed in the central area was longer, it was evaluated that the symptoms of anxiety were alleviated, and when the time was shorter, the mouse was evaluated to have symptoms of anxiety (Reference; Prut L, Belzung C. 2003. The open field as a paradigm to measure the effects of drugs on anxiety-like behaviors: a review. Eur J Pharmacol. February 28; 463(1-3):3-33.).

ICR male mice [2] = experiment: Light dark choice test; conditions: mouse, 60 minutes before testing
Method: The light-dark choice test is a model for anxiety-like behavior. This test is based on innate aversion of rodents to brightly lit areas and their voluntary exploration behaviors for light stress factors, that is, new environments and light. ICR male mice (30 g to 35 g) were purchased from Orient Bio Korea Co. (Korea) and allowed to acclimatize for 1 week before being tested in a controlled animal facility (temperature 22±2° C., humidity 55±5%). When treatment began, the weight of the animals was 35±5% g. The test compound for oral administration was dissolved in 30% PEG400 and administered at a dose per body weight of 10 mL/kg 60 minutes before testing. The test compound for intraperitoneal administration was dissolved in 20% Tween80 and administered at a dose per body weight of 10 mL/kg 60 minutes before testing. The control group was provided with a corresponding vehicle. An acryl box (45 cm×27 cm×27 cm) was composed of 2 chambers (white color: ⅔ of the box, black color: ⅓ of the box) connected by an opening (7.5 cm×7.5 cm) located at the bottom surface of the center of a partition wall. Each mouse was placed in the white part of the box and allowed to roam freely for a 5-minute session. At the end of the session, mice were returned to their habitat cage, and the experimental box was cleanly wiped with a 70% alcohol solution. All experiments were videotaped. After testing, all video recordings were analyzed. The obtained results are shown in Table 5 below (Reference; Bourin, M., Hascoet, M. 2003. The mouse light/dark box test. European Journal of Pharmacology, 463, 55-65. Bouwknecht, J A., Paylor, R. 2002. Behavioral and physiological mouse assays for anxiety: a survey in nine mouse strains. Behavioural Brain Research, 136, 489-501.).

[3] = tested on: rats that gave birth, chronic administration of corticosterone; experiment: PPD (chronic CORT induced PPD model), forced swim test; conditions: postpartum depression rat, 30 mg/kg, intraperitoneally 15 minutes before testing
Method: In order to confirm the effect on postpartum depression in rats, the forced swim test was conducted after chronic administration of corticosterone, a depression-causing substance, to rats that gave birth. The forced swim test causes an immobile state by forcing an animal to swim in a confined space. It reflects a state of despair giving up evading such a circumstance. Rats on the 15th day of pregnancy were purchased from Koatech (Korea) and allowed to acclimatize for 1 week before being tested in a controlled animal facility (temperature 22±2° C., humidity 55±5%). […] In the recorded videos, the time during which the animal placed its head on the water and remained still without movement was measured based on the remaining 4 minutes excluding the first 2 minutes. It was evaluated that the lower the value of the immobile posture time, the greater the anti-depressant action (Reference; S. Brummelte et al. Chronic corticosterone during pregnancy and affects maternal care, cell proliferation and depressive-like behavior in the dam. Hormones and Behavior 58 (2010) 769˜779, Porsolt R D, Le Pichon M, Jalfre M. 1997. Depression: a new animal model sensitive to anti-depressant treatments. Nature. April 21; 266(5604):730˜2.).
The result was shown as the standard error of measurement (SEM) of mean value±mean value. Behavioral data were analyzed by one-way ANOVA. […]

CC1(C)O[C@@H](COS(N)(=O)=O)[C@H](c2ccccc2Cl)O1 [Example 2, ((4S,5S)-5-(2-chlorophenyl)-2,2-dimethyl-1,3-dioxolan-4-yl)methyl sulfamate]
Spontaneous momentum(cm)/10 minutes, Treatment (ICR male mice [1]; intraperitoneal, 10 mg/kg): 5038.2 ± 455.9 cm/10 minutes
Time of staying in central area (sec.)/10 minutes, Treatment (ICR male mice [1]; intraperitoneal, 10 mg/kg): 31.6 ± 2.7 sec./10 minutes
Spontaneous momentum(cm)/10 minutes, Treatment (ICR male mice [1]; intraperitoneal, 30 mg/kg): 4249.4 ± 402.4 cm/10 minutes
Time of staying in central area (sec.)/10 minutes, Treatment (ICR male mice [1]; intraperitoneal, 30 mg/kg): 35.6 ± 3.1 sec./10 minutes
Spontaneous momentum(cm)/10 minutes, Treatment (ICR male mice [1]; oral, 10 mg/kg): 4997.3 ± 491.6 cm/10 minutes
Time of staying in central area (sec.)/10 minutes, Treatment (ICR male mice [1]; oral, 10 mg/kg): 36.6 ± 4.6 sec./10 minutes
Spontaneous momentum(cm)/10 minutes, Treatment (ICR male mice [1]; oral, 30 mg/kg): 5033.5 ± 233.8 cm/10 minutes
Time of staying in central area (sec.)/10 minutes, Treatment (ICR male mice [1]; oral, 30 mg/kg): 44.7 ± 3.5 sec./10 minutes
White box duration time (sec.)/5 minutes, Treatment (ICR male mice [2]; intraperitoneal, 10 mg/kg): 189.0 ± 10.8 sec./5 minutes
White box duration time (sec.)/5 minutes, Treatment (ICR male mice [2]; intraperitoneal, 30 mg/kg): 208.1 ± 13.2 sec./5 minutes
White box duration time (sec.)/5 minutes, Treatment (ICR male mice [2]; intraperitoneal, 40 mg/kg): 219.2 ± 13.3 sec./5 minutes
White box duration time (sec.)/5 minutes, Treatment (ICR male mice [2]; oral, 10 mg/kg): 136.4 ± 4.2 sec./5 minutes
White box duration time (sec.)/5 minutes, Treatment (ICR male mice [2]; oral, 30 mg/kg): 140.0 ± 12.3 sec./5 minutes
White box duration time (sec.)/5 minutes, Treatment (ICR male mice [2]; oral, 40 mg/kg): 193.1 ± 8.7 sec./5 minutes
Immobile posture time (sec.)/4 minutes, Treatment [3]: 5.07 sec./4 minutes
